Experimental data taken from PubChem BioAssay (NCI).
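Grown in 96-well plates, cells were treated for 48 hours with each compound at five concentrations. Insufficient inhibition: endpoint recorded as highest concentration tested. GI50 = concentration required for 50% inhibition of growth. Definition used: TGI = concentration required for complete inhibition of growth.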

Assays:
Experiment in all cases: inhibition of tumour cell growth, NCI panel, 48 h; in the data active = GI50 below about 0.43 µM; inactive = the rest
[1] = tested on: SK-OV-3 ovarian
[2] = tested on: M14 melanoma
[3] = tested on: SK-MEL-2 melanoma
[4] = tested on: HOP-62 NSCLC
[5] = tested on: OVCAR-5 ovarian
[6] = tested on: HS 578T breast
[7] = tested on: HCT-15 colon
[8] = tested on: NCI-H226 lung
[9] = tested on: ACHN renal
[10] = tested on: NCI/ADR-RES ovarian
[11] = tested on: OVCAR-8 ovarian
[12] = tested on: PC-3 prostate
[13] = tested on: NCI-H522 lung
[14] = tested on: MDA-MB-231 breast
[15] = tested on: A549 NSCLC
[16] = tested on: SNB-75 CNS
[17] = tested on: HCC-2998 colon
[18] = tested on: CAKI-1 renal
[19] = tested on: HOP-92 NSCLC
[20] = tested on: OVCAR-3 ovarian
[21] = tested on: SF-539 CNS
[22] = tested on: NCI-H23 lung
[23] = tested on: SK-MEL-28 melanoma
[24] = tested on: MOLT-4 leukemia
[25] = tested on: SR leukemia
[26] = tested on: CCRF-CEM leukemia
[27] = tested on: 786-0 renal
[28] = tested on: MALME-3M melanoma
[29] = tested on: SW-620 colon

C#CCn1cccc1CNc1ccc(OC)cc1
inactive: GI50 [1] > 100 µM | GI50 [2] 82 µM | GI50 [3] > 100 µM | GI50 [4] > 100 µM | GI50 [5] > 100 µM | GI50 [6] > 100 µM | GI50 [7] > 100 µM | GI50 [8] > 100 µM | GI50 [9] 97.2 µM | GI50 [10] > 100 µM | GI50 [11] > 100 µM | GI50 [12] 16 µM | GI50 [13] 41.6 µM | GI50 [14] > 100 µM | GI50 [15] > 100 µM | GI50 [16] > 100 µM | GI50 [17] > 100 µM | GI50 [18] 50 µM | GI50 [19] 2.94 µM | GI50 [20] 64.4 µM | GI50 [21] > 100 µM | GI50 [22] 46.4 µM | GI50 [23] > 100 µM | GI50 [24] > 100 µM | GI50 [25] > 100 µM | GI50 [26] 41 µM | GI50 [27] > 100 µM | GI50 [28] > 100 µM | GI50 [29] > 100 µM
> 100 µM: TGI [1] | TGI [2] | TGI [3] | TGI [4] | TGI [5] | TGI [6] | TGI [7] | TGI [8] | TGI [9] | TGI [10] | TGI [11] | TGI [12] | TGI [13] | TGI [14] | TGI [15] | TGI [16] | TGI [17] | TGI [18] | TGI [19] | TGI [20] | TGI [21] | TGI [22] | TGI [23] | TGI [24] | TGI [25] | TGI [26] | TGI [27] | TGI [28] | TGI [29]
